Measured values from US20160304959A1, “COMPOSITIONS AND METHODS FOR TREATING DIABETIC NEPHROPATHY” (Rush University Medical Center, priority 2013, published 2016).

How the values were obtained:
ErbB4 = ErbB4 (Homo sapiens, UniProt Q15303); details: cited from earlier work; for Affinity and selectivity for ErbB4 versus EGFR: pan-ErbB inhibitors; for Inhibition of ErbB4 (affinity): ref. 77 for JNJ
[1] = system: WT and miR-146a KO DN mice; experiment: TEM of kidney sections for podocyte foot process effacement after STZ; assay type: in vivo, mouse
Procedure: We also analyzed the kidney sections using transmission electron microscopy (TEM) to determine if erlotinib treatment provided protection of podocytes from foot process effacement. TEM was performed according to the standard protocols (Sever, S. et al. J Clin. Invest. 117, 2095-2104 (2007)).

[2] = system: DN prone miR-146a KO animals; experiment: STZ-induced diabetic nephropathy in miR-146a KO animals, albuminuria; assay type: in vivo, mouse; details: miR-146a KO + STZ mice, 70 mg/kg I.P. daily from 4 weeks post-STZ
Procedure: We investigated the role of miR-146 in diabetic nephropathy (DN) using the miR-146a KO animals and a DN mouse model. Streptozotocin (STZ) treatment (125 mg/kg, two doses 3 days apart) induced similar levels of hyperglycemia in both WT and miR146a KO animals (FIG. 7).
To determine if inhibiting ErbB4 using ErbB4 erlotinib would be beneficial and protect animals from DN, we administered Erlotinib (70 mg/kg in saline/Kolliphor, Tween, I.P., daily) in DN prone miR-146a KO animals starting at 4 weeks post-STZ.

podocytes = experiment: Podocytes treated with TGFβ and co-treated with ErbB4 inhibitor (qRT-PCR, immunofluorescence); assay type: cell-based, mouse; details: podocytes treated with TGFb plus inhibitor, 2 h
Procedure: FIG. 5A is a bar graph showing qRT-PCR based analysis of levels of various RNAs in podocytes cultured in normal glucose (5 mM) v/s treatment with HG (30 mM) for 2 h or 24 h (Notch-1). FIG. 5B is a bar graph showing qRT-PCR based analysis of levels of various RNAs in podocytes cultured in normal media or treated with TGFb in the absence or presence of ErbB4 inhibitor (JNJ) for 2 h. FIG. 5C provides representative immunofluorescence images showing podocytes cultured in normal media or treated with TGFb in the absence or presence of ErbB4 inhibitor (JNJ) for 2 h and stained for paxillin, synpo or ErbB4.

ErbB4, sequence (Q15303 26-1308): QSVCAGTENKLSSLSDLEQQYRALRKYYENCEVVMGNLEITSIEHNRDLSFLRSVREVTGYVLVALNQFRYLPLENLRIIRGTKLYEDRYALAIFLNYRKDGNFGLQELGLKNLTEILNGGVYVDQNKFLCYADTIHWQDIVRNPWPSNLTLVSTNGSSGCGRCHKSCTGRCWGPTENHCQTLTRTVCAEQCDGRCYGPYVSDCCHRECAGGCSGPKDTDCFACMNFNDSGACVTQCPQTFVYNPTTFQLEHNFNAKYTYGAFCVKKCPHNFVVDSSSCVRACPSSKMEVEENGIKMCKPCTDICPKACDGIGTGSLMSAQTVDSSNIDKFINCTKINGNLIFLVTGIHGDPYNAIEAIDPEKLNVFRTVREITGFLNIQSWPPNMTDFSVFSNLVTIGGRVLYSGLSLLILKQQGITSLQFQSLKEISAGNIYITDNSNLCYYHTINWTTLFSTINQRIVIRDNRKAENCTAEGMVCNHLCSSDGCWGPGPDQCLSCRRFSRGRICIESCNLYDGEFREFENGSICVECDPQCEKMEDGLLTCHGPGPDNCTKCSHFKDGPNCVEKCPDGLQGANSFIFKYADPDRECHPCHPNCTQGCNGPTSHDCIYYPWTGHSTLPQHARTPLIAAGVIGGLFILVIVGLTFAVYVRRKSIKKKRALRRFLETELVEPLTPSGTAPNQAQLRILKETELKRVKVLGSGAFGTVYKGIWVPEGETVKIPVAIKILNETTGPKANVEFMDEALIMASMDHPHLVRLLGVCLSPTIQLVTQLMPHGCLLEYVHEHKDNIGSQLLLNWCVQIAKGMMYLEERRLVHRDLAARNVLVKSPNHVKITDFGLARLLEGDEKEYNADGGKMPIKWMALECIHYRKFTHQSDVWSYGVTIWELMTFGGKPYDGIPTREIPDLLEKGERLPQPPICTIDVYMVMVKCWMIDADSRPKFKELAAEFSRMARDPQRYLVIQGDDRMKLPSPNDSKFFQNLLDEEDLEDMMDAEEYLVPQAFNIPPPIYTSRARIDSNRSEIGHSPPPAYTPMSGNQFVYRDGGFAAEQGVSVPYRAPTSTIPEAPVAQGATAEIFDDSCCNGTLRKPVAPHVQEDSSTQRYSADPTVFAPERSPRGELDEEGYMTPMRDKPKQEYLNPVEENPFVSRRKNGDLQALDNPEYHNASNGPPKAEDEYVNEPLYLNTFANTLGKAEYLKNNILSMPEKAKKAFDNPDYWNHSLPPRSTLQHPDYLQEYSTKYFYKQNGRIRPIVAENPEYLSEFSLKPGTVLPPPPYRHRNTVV

Structure (SMILES)	Affinity and selectivity for ErbB4 versus EGFR (ErbB4)	Podocyte foot process effacement (TEM) ([1]; WT mice after STZ)	Podocyte foot process effacement (TEM) ([1]; miR-146a KO DN mice)	Proteinuria (albuminuria) [2]	Inhibition of ErbB4 (affinity) (ErbB4)	Reversal of deleterious expression changes induced by TGFβ (mRNA and protein level) (podocytes)
CNc1cc2c(Nc3cccc(Br)c3)ncnc2cn1 [PD158780]	high affinity and selectivity for ErbB4					
C#Cc1cccc(Nc2ncnc3cc(OCCOC)c(OCCOC)cc23)c1 [Erlotinib]	high affinity and selectivity for ErbB4	significantly reduced podocyte foot process effacement	significantly reduced podocyte foot process effacement	significantly reduced proteinuria (albuminuria)		
Cl.Nc1ncnc(Nc2ccc(OCc3ccccc3)c(Cl)c2)c1/C=N/OCCN1CCOCC1 [JNJ28871063]	high affinity and selectivity for ErbB4				nanomolar affinity	reversed the deleterious expression changes induced by TGFβ
CS(=O)(=O)CCNCc1ccc(-c2ccc3ncnc(Nc4ccc(OCc5cccc(F)c5)c(Cl)c4)c3c2)o1 [Lapatinib]	much more effective against EGFR v/s ErbB4				only weakly effective on ErbB4	less effective
